Read-outs that look alike come from different tables or passages of the source. Values belong to the compound of their own block, whether it stands above or below them.
Target: T1, CFTR (Homo sapiens, UniProt P13569, DEL508-508)
T1 construct: endogenous in cells; host or cells: primary human bronchial epithelial cells from CF subjects (F508del/MF-HBE), differentiated at air-liquid interface
Test: HBE assay: Ussing chamber assay of CFTR-mediated short-circuit currents
Assay type: cell-based
Summary of the method: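 CFTR-mediated Isc (μA/cm²) equals the peak response to apical 20 μM forskolin minus the residual after a 20 μM each BPO/GlyH-101/CFTR inhibitor 172 cocktail, recorded in Ussing chambers at Vhold 0 mV, 37 °C, pH 7.4, with 30 μM apical amiloride. Cells were F508del/MF HBE cultures preincubated 18-24 h with corrector (concentration range or 10 μM) plus 1 μM ivacaftor in 20% human serum.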

[1] = HBE assay, read-out: HBE Max activity (%)
[2] = Table 12, at 10 μM, read-out: HBE Activity at 10 μM (%)
[3] = Table 12, read-out: HBE Max Activity (%)
[4] = Table 13, at 10 μM, read-out: HBE Activity at 10 μM (%)
[5] = HBE assay, 10 μM, read-out: HBE Activity at 10 μM (%)
[6] = Table 11, read-out: HBE Max Activity (%)
[7] = Table 10, read-out: HBE Max activity (%)
[8] = Table 11, at 10 μM, read-out: HBE Activity at 10 μM (%)
[9] = Table 13, read-out: HBE Max Activity (%)

T1 sequence (P13569 with tags, fused parts or gaps DEL508-508): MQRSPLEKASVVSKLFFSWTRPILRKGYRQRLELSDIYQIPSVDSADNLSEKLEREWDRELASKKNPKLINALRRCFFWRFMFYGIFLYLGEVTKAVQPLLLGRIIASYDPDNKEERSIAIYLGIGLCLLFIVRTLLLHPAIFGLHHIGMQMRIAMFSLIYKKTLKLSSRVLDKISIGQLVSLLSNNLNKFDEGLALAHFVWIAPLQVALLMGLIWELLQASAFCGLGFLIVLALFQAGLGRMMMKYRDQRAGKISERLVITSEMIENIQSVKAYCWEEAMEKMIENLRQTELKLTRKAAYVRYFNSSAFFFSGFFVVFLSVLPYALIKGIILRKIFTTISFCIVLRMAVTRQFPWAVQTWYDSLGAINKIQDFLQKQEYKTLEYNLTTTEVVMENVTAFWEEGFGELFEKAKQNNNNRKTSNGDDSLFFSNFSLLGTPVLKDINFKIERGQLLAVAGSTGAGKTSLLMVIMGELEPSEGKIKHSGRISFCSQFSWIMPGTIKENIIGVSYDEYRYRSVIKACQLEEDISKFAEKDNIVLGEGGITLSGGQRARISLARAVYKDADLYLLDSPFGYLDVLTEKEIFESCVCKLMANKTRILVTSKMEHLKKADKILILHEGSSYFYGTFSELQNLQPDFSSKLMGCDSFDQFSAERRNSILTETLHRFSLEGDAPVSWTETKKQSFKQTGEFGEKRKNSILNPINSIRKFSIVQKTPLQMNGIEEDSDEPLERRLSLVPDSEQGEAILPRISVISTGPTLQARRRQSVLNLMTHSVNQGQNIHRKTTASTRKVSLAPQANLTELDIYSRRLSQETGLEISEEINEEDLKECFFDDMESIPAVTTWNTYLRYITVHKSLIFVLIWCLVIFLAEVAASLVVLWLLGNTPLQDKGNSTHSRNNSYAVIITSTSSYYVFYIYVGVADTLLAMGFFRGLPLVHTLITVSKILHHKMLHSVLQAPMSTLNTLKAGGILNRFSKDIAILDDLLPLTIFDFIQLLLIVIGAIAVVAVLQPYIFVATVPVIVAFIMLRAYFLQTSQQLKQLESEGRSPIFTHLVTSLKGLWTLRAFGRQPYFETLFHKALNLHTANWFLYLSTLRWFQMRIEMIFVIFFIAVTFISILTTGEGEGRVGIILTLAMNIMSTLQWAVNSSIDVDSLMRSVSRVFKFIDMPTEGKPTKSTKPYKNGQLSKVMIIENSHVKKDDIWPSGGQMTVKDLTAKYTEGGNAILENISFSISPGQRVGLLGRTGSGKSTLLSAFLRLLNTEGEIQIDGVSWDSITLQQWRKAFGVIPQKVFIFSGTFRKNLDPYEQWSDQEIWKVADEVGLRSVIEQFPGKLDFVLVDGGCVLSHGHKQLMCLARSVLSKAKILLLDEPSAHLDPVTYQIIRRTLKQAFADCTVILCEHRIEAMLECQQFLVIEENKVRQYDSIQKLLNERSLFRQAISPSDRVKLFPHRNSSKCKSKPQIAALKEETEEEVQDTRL

Compound: CC[C@@H](C)Oc1cnc(CN2C(=O)c3cccc(c3)S(=O)(=O)Nc3nc(cc(-c4c(C)cccc4C)n3)OC[C@H]2CC(C)(C)C)nc1 [Compound 1375]
EC50 (HBE assay, read-out: HBE EC50): < 1 µM | Emax [1]: > 60%

Compound: Cc1cccc(C)c1-c1cc2nc(n1)NS(=O)(=O)c1cccc(c1)C(=O)N(Cc1cccc(N(CC3CCCO3)C(C)C)n1)[C@H](CC(C)(C)C)CO2 (stereo partly drawn) [Compound 1445]
EC50 (HBE assay, read-out: HBE EC50): 1 to 3 µM | Emax [1]: > 60%

Compound: Cc1cccc(C)c1-c1cc2nc(n1)NS(=O)(=O)c1cccc(c1)C(=O)N(Cc1ncc(OC(C)C)cn1)[C@H](C(C)C)CO2 [Compound 696]
activation at 10 µM [2]: > 600% | EC50 (Table 12, read-out: HBE EC50): < 1 µM | Emax [3]: < 30%

Compound: Cc1cccc(C)c1-c1cc2nc(n1)NS(=O)(=O)c1cccc(c1)C(=O)N(Cc1ccn(C3CCC3)n1)[C@H](CC(C)(C)C)CO2 [Compound 461]
EC50 (Table 12, read-out: HBE EC50): < 1 µM | Emax [3]: > 60%

Compound: Cc1cccc(C)c1-c1cc2nc(n1)NS(=O)(=O)c1cccc(c1)C(=O)N(Cc1nc(N(C)C)cc(N(C)C)n1)[C@H](CC(C)(C)C)CO2 [Compound 322]
EC50 (Table 12, read-out: HBE EC50): < 1 µM | Emax [3]: > 60%

Compound: COC1CCN(c2cnc(CN3C(=O)c4cccc(c4)S(=O)(=O)Nc4nc(cc(-c5c(C)cccc5C)n4)OC[C@H]3CC(C)(C)C)nc2)CC1 [Compound 718]
EC50 (Table 11, read-out: HBE EC50): < 1 µM | Emax [6]: > 60%

Compound: Cc1cccc(C)c1-c1cc2nc(n1)NS(=O)(=O)c1cccc(c1)C(=O)N(Cc1ncc(N3CC(C)C3)cn1)[C@H](CC(C)(C)C)CO2 [Compound 1403]
EC50 (HBE assay, read-out: HBE EC50): < 1 µM | Emax [1]: > 60%

Compound: Cc1cccc(C)c1-c1cc2nc(n1)NS(=O)(=O)c1cccc(c1)C(=O)N(Cc1cccc(C3CCC(C)(C)CC3)n1)[C@H](CC(C)(C)C)CO2 [Compound 727]
EC50 (Table 11, read-out: HBE EC50): < 1 µM | Emax [6]: > 60%

Compound: Cc1cccc(C)c1-c1cc2nc(n1)NS(=O)(=O)c1cccc(c1)C(=O)N(Cc1ccc(-c3cncnc3)cc1)[C@H](CC(C)(C)C)CO2 [Compound 144, (11R)-6-(2,6-dimethylphenyl)-11-(2,2-dimethylpropyl)-2,2-dioxo-12-[(4-pyrimidin-5-ylphenyl)methyl]-9-oxa-2λ^6-thia-3,5,12,19-tetrazatricyclo[12.3.1.14,8]nonadeca-1(18),4(19),5,7,14,16-hexaen-13-one]
EC50 (Table 10, read-out: HBE EC50): < 1 µM | Emax [7]: > 60%

Compound: Cc1cc(C2COCCO2)cnc1CN1C(=O)c2cccc(c2)S(=O)(=O)Nc2nc(cc(-c3c(C)cccc3C)n2)OC[C@H]1CC(C)(C)C (stereo partly drawn) [Compound 1436]
activation at 10 µM [5]: > 60% | EC50 (HBE assay, read-out: HBE EC50): < 1 µM | Emax [1]: > 60%

Compound: Cc1cccc(C)c1-c1cc2nc(n1)NS(=O)(=O)c1cccc(c1)C(=O)N(CC(=O)NC1CCCC1)[C@H](CC(C)(C)C)CO2 [Compound 198]
activation at 10 µM [4]: > 600%

Compound: Cc1cccc(C)c1-c1cc2nc(n1)NS(=O)(=O)c1cccc(c1)C(=O)N(Cc1cccc(N3CCC[C@@H]3C#N)n1)[C@H](CC(C)(C)C)CO2 [Compound 533]
activation at 10 µM [4]: > 600%

Compound: Cc1cccc(C)c1-c1cc2nc(n1)NS(=O)(=O)c1cccc(c1)C(=O)N(Cc1ncc(N3CCC4(COC4)C3)cn1)[C@H](CC(C)(C)C)CO2 [Compound 580]
EC50 (Table 12, read-out: HBE EC50): < 1 µM | Emax [3]: > 60%

Compound: COCCN(C)c1cnc(CN2C(=O)c3cccc(c3)S(=O)(=O)Nc3nc(cc(-c4c(C)cccc4C)n3)OC[C@H]2CC(C)(C)C)c(C)c1 [Compound 1381]
EC50 (HBE assay, read-out: HBE EC50): < 1 µM | Emax [1]: > 60%

Compound: CNC(=O)COc1ccc(CN2C(=O)c3cccc(c3)S(=O)(=O)Nc3nc(cc(-c4c(C)cccc4C)n3)OC[C@H]2CC(C)(C)C)cc1 [Compound 778]
EC50 (Table 10, read-out: HBE EC50): < 1 µM | Emax [7]: > 60%

Compound: Cc1cccc(C)c1-c1cc2nc(n1)NS(=O)(=O)c1cccc(c1)C(=O)N(Cc1cnn(C(C)C)c1)[C@H](CC(C)(C)C)CO2 [Compound 823]
activation at 10 µM (Table 10, at 10 μM, read-out: HBE activity at 10 (μM) (%)): > 60% | Emax [7]: > 60%

Compound: COc1ccnc(CN2C(=O)c3cccc(c3)S(=O)(=O)Nc3nc(cc(-c4c(C)cccc4C)n3)OC[C@H]2CC(C)(C)C)n1 [Compound 773]
EC50 (Table 10, read-out: HBE EC50): < 1 µM | Emax [7]: > 60%

Compound: Cc1cccc(CN2C(=O)c3cccc(c3)S(=O)(=O)Nc3nc(cc(-c4c(C)cccc4C)n3)OC[C@H]2CC(C)(C)C)n1 [Compound 465]
EC50 (Table 11, read-out: HBE EC50): < 1 µM | Emax [6]: > 60%

Compound: Cc1cccc(C)c1-c1cc2nc(n1)NS(=O)(=O)c1cccc(c1)C(=O)N(Cc1nccc(NC(C)C)c1F)[C@H](CC(C)(C)C)CO2 [Compound 1132]
EC50 (Table 13, read-out: HBE EC50): < 1 µM | Emax [9]: > 60%

Compound: Cc1cccc(C)c1-c1cc2nc(n1)NS(=O)(=O)c1cccc(c1)C(=O)N(Cc1ncc([C@@H](O)CO)cn1)[C@H](CC(C)(C)C)CO2 [Compound 1152]
EC50 (Table 13, read-out: HBE EC50): < 1 µM

Compound: Cc1cccc(C)c1-c1cc2nc(n1)NS(=O)(=O)c1cccc(c1)C(=O)N(CC1CC(N3C[C@@H](C)O[C@@H](C)C3)C1)[C@H](CC(C)(C)C)CO2 (single isomer, unassigned) [Compound 64]
EC50 (HBE EC50 (μM), Table 10): < 1 µM | Emax (read-out: HBE Max activity (%)): > 60%

Compound: COCCN(c1cncc(CN2C(=O)c3cccc(c3)S(=O)(=O)Nc3nc(cc(-c4c(C)cccc4C)n3)OC[C@H]2CC(C)(C)C)n1)C1CCC1 [Compound 1417]
EC50 (HBE assay, read-out: HBE EC50): < 1 µM | Emax [1]: > 60%

Compound: Cc1cccc(C)c1-c1cc2nc(n1)NS(=O)(=O)c1cccc(c1)C(=O)N(Cc1cnnn1C)[C@H](CC(C)(C)C)CO2 [Compound 774]
activation at 10 µM [8]: > 60%

Compound: Cc1cccc(C)c1-c1cc2nc(n1)NS(=O)(=O)c1cccc(c1)C(=O)N(Cc1ncc(OC(F)F)cn1)[C@H](CC(C)(C)C)CO2 [Compound 1430]
EC50 (HBE assay, read-out: HBE EC50): < 1 µM | Emax [1]: > 60%

Compound: Cc1cccc(C)c1-c1cc2nc(n1)NS(=O)(=O)c1cccc(c1)C(=O)N(Cc1ccccc1-c1c[nH]nc1C1CC1)[C@H](CC(C)(C)C)CO2 [Compound 303]
EC50 (Table 10, read-out: HBE EC50): < 1 µM | Emax [7]: > 60%

Compound: Cc1cccc(C)c1-c1cc2nc(n1)NS(=O)(=O)c1cccc(c1)C(=O)N(Cc1cccc(N(C(C)C)C(C)C)n1)[C@H](CC(C)(C)C)CO2 [Compound 637]
EC50 (Table 11, read-out: HBE EC50): 3 to 30 µM | Emax [6]: > 60%

Compound: Cc1cccc(C)c1-c1cc2nc(n1)NS(=O)(=O)c1cccc(c1)C(=O)N(Cc1ncc(C3CCCC3)cn1)[C@H](CC(C)(C)C)CO2 [Compound 638]
EC50 (Table 11, read-out: HBE EC50): 1 to 3 µM | Emax [6]: > 60%

The remaining lines, values ahead:

EC50 (HBE assay, read-out: HBE EC50): 1 to 3 µM | Emax [1]: > 60%
Compound: Cc1cccc(C)c1-c1cc2nc(n1)NS(=O)(=O)c1cccc(c1)C(=O)N(Cc1ncc(OC3CCCC3)cn1)[C@H](CC(C)C)CO2 [Compound 1408]

activation at 10 µM [4]: > 600%
Compound: Cc1cccc(C)c1-c1cc2nc(n1)NS(=O)(=O)c1cccc(c1)C(=O)N(Cc1cccc(N3CCC[C@H]3C#N)n1)[C@H](CC(C)(C)C)CO2 [Compound 534]

activation at 10 µM [5]: > 60%
Compound: Cc1cccc(C)c1-c1cc2nc(n1)NS(=O)(=O)c1cccc(c1)C(=O)N(Cc1ncc(NC(=O)OC(C)C)cn1)[C@H](CC(C)(C)C)CO2 [Compound 1515]

activation at 10 µM [2]: > 600%
Compound: Cc1cccc(C)c1-c1cc2nc(n1)NS(=O)(=O)c1cccc(c1)C(=O)N(CC(=O)NCCN1CCOCC1)[C@H](CC(C)(C)C)CO2 [Compound 166]

EC50 (Table 11, read-out: HBE EC50): < 1 µM | Emax [6]: > 60%
Compound: Cc1cccc(C)c1-c1cc2nc(n1)NS(=O)(=O)c1cccc(c1)C(=O)N(Cc1nccc(N)n1)[C@H](CC(C)(C)C)CO2 [Compound 645]

EC50 (HBE assay, read-out: HBE EC50): < 1 µM | Emax [1]: > 60%
Compound: Cc1cccc(C)c1-c1cc2nc(n1)NS(=O)(=O)c1cccc(c1)C(=O)N(Cc1ncc(OC3CCC3)cc1F)[C@H](CC1CC1)CO2 [Compound 1468]

activation at 10 µM [8]: > 60%
Compound: Cc1cccc(C)c1-c1cc2nc(n1)NS(=O)(=O)c1cccc(c1)C(=O)N(Cc1cccc(C3=CCC(C)(C)CC3)n1)[C@H](CC(C)(C)C)CO2 [Compound 734]

EC50 (HBE assay, read-out: HBE EC50): < 1 µM | Emax [1]: > 60%
Compound: Cc1cccc(C)c1-c1cc2nc(n1)NS(=O)(=O)c1cccc(c1)C(=O)N(Cc1ncc(OCC(C)C)cn1)[C@H](CC(C)(C)C)CO2 [Compound 1396]

EC50 (Table 11, read-out: HBE EC50): 1 to 3 µM | Emax [6]: > 60%
Compound: COCCN1CCCC(CN2C(=O)c3cccc(c3)S(=O)(=O)Nc3nc(cc(-c4c(C)cccc4C)n3)OC[C@H]2CC(C)(C)C)C1=O (stereo partly drawn) [Compound 641]

EC50 (Table 13, read-out: HBE EC50): < 1 µM | Emax [9]: > 60%
Compound: Cc1cccc(C)c1-c1cc2nc(n1)NS(=O)(=O)c1cccc(c1)C(=O)N(Cc1ncc(C3CC4(C3)CC(C)(C)C4)cn1)[C@H](CC(C)(C)C)CO2 [Compound 162]

EC50 (Table 13, read-out: HBE EC50): 1 to 3 µM | Emax [9]: > 60%
Compound: Cc1cccc(C)c1-c1cc2nc(n1)NS(=O)(=O)c1cccc(c1)C(=O)N(Cc1cccc(N(CCOC(C)C)C(C)C)n1)[C@H](CC(C)(C)C)CO2 [Compound 236]

activation at 10 µM [2]: > 600%
Compound: Cc1cccc(C)c1-c1cc2nc(n1)NS(=O)(=O)c1cccc(c1)C(=O)N(Cc1cccc(N3CC(C(C)(C)C)CC3(C)C)n1)[C@H](CC(C)(C)C)CO2 (stereo partly drawn) [Compound 877]

EC50 (Table 12, read-out: HBE EC50): < 1 µM | Emax [3]: > 60%
Compound: COC[C@H]1CCCN1c1cncc(CN2C(=O)c3cccc(c3)S(=O)(=O)Nc3nc(cc(-c4c(C)cccc4C)n3)OC[C@H]2CC(C)(C)C)n1 [Compound 274]

EC50 (Table 13, read-out: HBE EC50): < 1 µM | Emax [9]: > 60%
Compound: Cc1cccc(C)c1-c1cc2nc(n1)NS(=O)(=O)c1cccc(c1)C(=O)N(Cc1ccc(N3CC4(CCCO4)C3)cn1)[C@H](CC(C)(C)C)CO2 [Compound 1058]

Reference: patent US20240150377A1, “MODULATORS OF CYSTIC FIBROSIS TRANSMEMBRANE CONDUCTANCE REGULATOR” (VERTEX PHARMACEUTICALS INCORPORATED, priority 2020, published 2024)
